# In article PMC8041370, “Limonoids from Guarea guidonia and Cedrela odorata: Heat Shock Protein 90 (Hsp90) Modulator Properties of Chisomicine D” (Journal of Natural Products, 2021):
# Like-named read-outs stand apart in the source and are kept apart here.
# Tests used:
# Hsp90α [1] = target: T1, Hsp90α (Homo sapiens, UniProt P07900); test: Surface plasmon resonance binding to immobilized Hsp90α; parameters: purchased Stress-gen Bioreagents Corporation, Victoria, Canada SPP-776; details: SPR, 25 °C, mean ± standard deviation (n = 3)
# Method: 1 and 4 μM), and, for each sample, a complete binding study was carried out in triplicate. The experiments were performed at 25 °C, using a flow rate of 50 μL/min, with 60 s monitoring of association and 300 s monitoring of dissociation. Changes in mass, due to the binding response, were recorded as resonance units (RU). To obtain the dissociation constant (KD), these responses were fit to a 1:1 Langmuir binding model by nonlinear regression, using the BiaEvaluation sofware program (GE Healthcare). Simple interactions were suitably fitted to a single-site bimolecular interaction model (A + B = AB), yielding a single KD.
# [2] = system: U937 (human myeloid leukemia) cell line; test: MTT cell viability, U937; assay type: cell-based; details: U-937, 48 h
# Method: (§1) HeLa (cervical carcinoma) and U937 (pro-monocytic, human myeloid leukemia) cell lines were purchased from the American Type Cell Culture (ATCC) (Rockville, MD, USA). HeLa cells were maintained in DMEM, and U937 were cultured in RPMI 1640, both supplemented with 10% FBS, 100 mg/L streptomycin, and penicillin 100 IU/mL at 37 °C in a humidified atmosphere of 5% CO2. To ensure logarithmic growth, cells were subcultured every 2 days. Stock solutions of compound in DMSO were stored in the dark at 4 °C. Appropriate dilutions were prepared in culture medium immediately prior to use. […] PBMCs were isolated from buffy coats of healthy donors (kindly provided by the Blood Center of the Hospital of Battipaglia, Italy) by using standard Ficoll-Hypaque gradients. PBMCs were incubated with DMSO or compound 1 at 30 μM for 48 h. […] The number of viable cells was quantified by the MTT [3-(4,5-dimethylthiazol-2-yl)-2,5-diphenyl tetrazolium bromide] assay. Absorption at 550 nm for each well was assessed using Multiskan GO (Thermo Scientific). Half-maximal inhibitory concentration (IC50) values were calculated using GraphPad Prism 8. Experiments were performed in technical triplicates and repeated two times with similar results.
# [3] = system: HeLa (epithelial carcinoma) cells; test: MTT cell viability, HeLa; assay type: cell-based; details: Homo sapiens, 48 h
# Method: as §1
# [4] = system: PBMC (nontumor human peripheral blood mononuclear cell line); test: Cytotoxicity on PBMC; assay type: cell-based; details: 30 μM, 48 h
# Method: HeLa (cervical carcinoma) and U937 (pro-monocytic, human myeloid leukemia) cell lines were purchased from the American Type Cell Culture (ATCC) (Rockville, MD, USA). HeLa cells were maintained in DMEM, and U937 were cultured in RPMI 1640, both supplemented with 10% FBS, 100 mg/L streptomycin, and penicillin 100 IU/mL at 37 °C in a humidified atmosphere of 5% CO2. To ensure logarithmic growth, cells were subcultured every 2 days. Stock solutions of compound in DMSO were stored in the dark at 4 °C. Appropriate dilutions were prepared in culture medium immediately prior to use. […] PBMCs were isolated from buffy coats of healthy donors (kindly provided by the Blood Center of the Hospital of Battipaglia, Italy) by using standard Ficoll-Hypaque gradients. PBMCs were incubated with DMSO or compound 1 at 30 μM for 48 h.
# U937 cells [5] = test: Cell cycle by propidium iodide flow cytometry and p-CDC2/CDC2 Western blot; assay type: cell-based, human
# Method: (§2) U937 cells were preliminarily synchronized by serum starvation and then seeded in six-well plates at a cell density of 8 × 10^5 cell/well. After 24 h, they were incubated for 48 h in the presence of compound 1 at IC50 concentration (20 μm), with phenethyl isothiocyanate and DMSO as a positive and negative control, respectively. Apoptosis was evaluated by an annexin V–FITC/PI apoptosis detection kit (Dojindo EU GmbH, Munich, Germany), and the cell cycle was evaluated by propidium iodide (PI) staining of permeabilized cells, according to the available protocol, and flow cytometry (BD FACSCalibur flow cytometer, Becton Dickinson, San Jose, CA, USA). Data from 5000 events per sample were collected. The percentages of the elements in the hypodiploid region and in G1, S, and G2 phases of the cell cycle and apoptosis data were calculated using FlowJo (BD Biosciences). Experiments were performed in technical triplicates and repeated two times with similar results.
# (§3) Whole cell lysates (U937) for immunoblot analysis were lysed with RIPA buffer (20 mM Tris-HCl pH 7.5, 150 mM NaCl, 1 mM EDTA, 1% NP-40, 1% sodium deoxycholate, 2.5 mM sodium pyrophosphate) supplemented with protease and phosphatase inhibitors. Protein concentration was determined by a Bradford solution for protein determination (Applichem) using BSA as a standard. Proteins were fractionated on SDS-PAGE, transferred into nitrocellulose membranes, and immunoblotted with the appropriate primary antibody. Signals were visualized with the appropriate horseradish peroxidase-conjugated secondary antibody and enhanced chemiluminescence (Amersham Biosciences-GE Healthcare, NY, USA). Densitometric analyses were carried out using the ImageJ software. Experiments were performed in duplicate.
# U937 cells [6] = test: Apoptosis by annexin V-FITC/PI flow cytometry and caspase 3 Western blot; assay type: cell-based, human; details: U937, 20 μM
# Method: as §2
# Whole cell lysates (U937) for immunoblot analysis were lysed with RIPA buffer (20 mM Tris-HCl pH 7.5, 150 mM NaCl, 1 mM EDTA, 1% NP-40, 1% sodium deoxycholate, 2.5 mM sodium pyrophosphate) supplemented with protease and phosphatase inhibitors. Protein concentration was determined by a Bradford solution for protein determination (Applichem) using BSA as a standard. […]
# Hsp90α [7] = target: T1, Hsp90α; test: Hsp90 ATPase activity; assay type: biochemical; details: 10 or 20 μM; data not shown
# [8] = system: Hsp90α client protein levels in U937 cells; test: Western blot of Hsp90α, Hsp70 and Hsp90 client protein levels; assay type: cell-based, human
# Method: as §3
# Proteins extracted from U937 cells following a 24 h treatment with 20 μM solution of compound 1 and from untreated cells (control) were fractionated on SDS-PAGE. The bands corresponding to the intact and truncated forms of Hsp90 (apparent molecular weight 90 and 70 kDa, respectively) were excised and subjected to a classical in-gel tryptic digestion. The resulting peptide mixtures were analyzed in positive ion full scan and dependent scan MS mode on a Q-Exactive Orbitrap mass spectrometer coupled with a nanoUltimate UHPLC system (Thermo Fisher Scientific, Waltham, MA, USA). Peptide separation was performed on a capillary EASY-Spray PepMap column (0.075 mm × 50 mm, 2 μm, Thermo Fisher Scientific) using aqueous 0.1% formic acid (A) and CH3CN containing 0.1% formic acid (B) as mobile phases and a linear gradient from 3% to 40% of B in 45 min and a 300 nL/min flow rate. Mass spectra were acquired over an m/z range from 400 to 1300. Dependent scan data were preliminarily analyzed to confirm the presence of Hsp90 in the digested gel-bands. To this aim, MS and MS/MS data underwent Mascot software (v2.5, Matrix Science, Boston, MA, USA) analysis using the nonredundant data bank UniprotKB/Swiss-Prot (release 2020_03). Parameter sets were as follows: trypsin cleavage; carbamidomethylation of cysteine as a fixed modification and methionine oxidation as a variable modification; a maximum of two missed cleavages; false discovery rate (FDR), calculated by searching the decoy database, 0.05. The data analysis of protein was carried out using the gene ontology tool in the UniProt Knowledgebase (UniProtKB; http://www.uniprot.org). Based on the achieved results, full mass chromatograms were analyzed using Xcalibur software by generating extracted ion spectra specific for the Hsp90 tryptic peptides completely covering the protein amino acidic sequence.
# [9] = U937, 20 μM, 48 h, PI staining, Figure 2B
compound,measurement,setting,value
"CC(=O)O[C@H]1C[C@@]2(C)[C@H](C3=C[C@@H](O)OC3=O)OC(=O)[C@H]3O[C@]32[C@@]2(C)[C@H]1[C@@]13COC(=O)C[C@@H]1OC(C)(C)[C@@H]3C[C@H]2OC(C)=O [Compound 9, 11β-acetoxycedrelosin B]",KD,Hsp90α [1],low affinity
same,Kd,Hsp90α [1],183 ± 18.9 nM
"COC(=O)C[C@H](OC(C)=O)[C@]1(C)[C@H]2[C@@H](OC(C)=O)C[C@@]3(C)[C@H](c4ccoc4)OC(=O)[C@H]4O[C@]43[C@]2(C)[C@H](OC(C)=O)C[C@H]1C(C)(C)O [Compound 12, odoralide]",KD,Hsp90α [1],no binding
"C/C=C(\C)C(=O)O[C@@H]1/C=C\[C@]2(O)C3=CC(=O)O[C@@H](c4ccoc4)[C@]3(C)CC[C@]2(O)[C@]2(C)C(=O)C[C@@]1(C)[C@@H]2CC(=O)OC (relative stereo) [Compound 1, 8-hydro-(8S*,9S*)-dihydroxy-14,15-en-chisomicine A]",IC50,[2]; read-out: IC50 growth inhibition U937,20000 ± 3000 nM
same,IC50,[3],> 50000 nM
same,cytotoxic activity on PBMC,[4],did not show any cytotoxic activity
same,G1 phase,U937 cells [5]; [9],"53,1"
same,G2 phase,U937 cells [5]; [9],"16,7"
same,S phase,U937 cells [5]; [9],"12,3"
same,effect on cell cycle,"U937 cells [5]; U937, 48 h (1 at 20 μM)",G2 phase cell cycle arrest
same,p-CDC2/CDC2 ratio,"U937 cells [5]; U937, Western blot, 10 and 20 μM",increase
same,increase of late apoptosis compared to the negative control,"U937 cells [6]; 48 h, annexin V/FITC",about 15%
same,pro-caspase 3 cleavage,U937 cells [6]; Western blot,induced the cleavage of pro-caspase 3
same,inhibition of Hsp90 ATPase activity,Hsp90α [7],did not affect its enzymatic efficiency
same,Hsp70 cellular levels,"[8]; U937, 30 μM, 48 h",affected
same,ERK concentration,"[8]; U937, 10, 20 and 30 μM, 48 h",no significant variation
same,Hsp90 amount,"[8]; U937, 10, 20 and 30 μM, 48 h",down-regulated in a dose-dependent manner
same,p-ERK2 level,"[8]; U937, 10, 20 and 30 μM, 48 h",strong depletion
same,Hsp90 cleavage,"[8]; U937, 20 and 30 μM, 48 h","Hsp90 cleaved form, with an apparent molecular weight of 70 kDa, was observed"
same,level of both isoforms of JNK,"[8]; U937, 48 h, regardless of phosphorylation",significantly reduced
same,Kd,Hsp90α [1],18.2 ± 1.9 nM
"C[C@@H]1C[C@H]2O[C@@H]2/C=C\C=C\C(=O)Cc2c(Cl)c(O)cc(O)c2C(=O)O1 [radicicol, reference compound]",IC50,"[2]; positive control for HeLa and U937, cell line not specified, read-out: IC50 of positive control",250 nM
"CC(=O)O[C@H]1C[C@@]2(C)[C@H](C3=CC(=O)O[C@@H]3O)OC(=O)[C@H]3O[C@]32[C@@]2(C)[C@H]1[C@@]1(C)C=CC(=O)OC(C)(C)[C@@H]1C[C@H]2OC(C)=O [Compound 5, 7-deoxo-7α,11β-diacetoxykihadanin A]",KD,Hsp90α [1],no binding
"COC(=O)[C@@H](OC(C)=O)[C@H]1C(C)(C)[C@H](O)[C@@H]2CC3=C4CC(=O)O[C@@H](c5ccoc5)[C@]4(C)CC[C@@H]3[C@@]1(C)C2=O [Compound 13, 6-O-acetylswietenolide]",Kd,Hsp90α [1],25.5 ± 3.4 nM
"CC(=O)O[C@H]1CC(=O)OC(C)(C)[C@@H]2C[C@@H](OC(C)=O)[C@@]3(C)C4=CC[C@@H](C(O)(CO)CCO)[C@]4(C)CC[C@@H]3[C@@]12C (stereo partly drawn) [Compound 7, cedrelosin F]",KD,Hsp90α [1],no binding
"CC(=O)O[C@H]1C[C@@]2(C)[C@H](c3ccoc3)OC(=O)[C@H]3O[C@]32[C@@]2(C)[C@H]1[C@@]1(C)C=CC(=O)OC(C)(C)[C@@H]1C[C@H]2OC(C)=O [Compound 11, 11β-acetoxybacunyl acetate]",Kd,Hsp90α [1],25.3 ± 1.8 nM
"COC(=O)C[C@H]1C(C)(C)[C@H](OC(=O)C(O)C(C)C)[C@@H]2C=C3C4CC(=O)O[C@@H](c5ccoc5)[C@]4(C)CC[C@@H]3[C@@]1(C)C2=O (stereo partly drawn) [Compound 4, 3-(2′-hydroxyisovaleroyl)khasenegasin I]",KD,Hsp90α [1],no binding
"C=C(C)C(=O)O[C@@H]1/C=C\[C@]2(O)C3=CC(=O)O[C@@H](c4ccoc4)[C@]3(C)CC[C@]2(O)[C@]2(C)C(=O)C[C@@]1(C)[C@@H]2CC(=O)OC [Compound 2, chisomicine E]",KD,Hsp90α [1],no binding
"COC(=O)C[C@H]1C(C)(C)[C@H](O)[C@@H]2CC3=C4CC(=O)O[C@@H](c5ccoc5)[C@]4(C)CC[C@@H]3[C@@]1(C)C2=O [Compound 14, proceranolide]",KD,Hsp90α [1],no binding
"CC(=O)O[C@H]1C[C@@]2(C)[C@H](c3ccoc3)OC(=O)[C@H]3O[C@]32[C@]2(C)[C@H](O)C[C@H]3C(C)(C)O[C@H]4CC(=O)OC[C@]43[C@@H]12 [Compound 8, 11β-acetoxylimonol]",Kd,Hsp90α [1],24.8 ± 2.3 nM
"CC(=O)O[C@H]1C[C@@]2(C)[C@H](c3ccoc3)OC(=O)[C@H]3O[C@]32[C@@]2(C)[C@H]1[C@@]1(C)[C@@H](OC(C)=O)CC(=O)OC(C)(C)[C@@H]1C[C@H]2OC(C)=O [Compound 10, 7α,11β-diacetoxydihydronomilin]",KD,Hsp90α [1],no binding
"C/C=C(\C)C(=O)O[C@@H]1/C=C\C2=C3CC(=O)O[C@@H](c4ccoc4)[C@]3(C)CC[C@]2(O)[C@]2(C)C(=O)C[C@@]1(C)[C@@H]2CC(=O)OC (relative stereo) [Compound 3, (9R*)-hydroxychisomicine A]",KD,Hsp90α [1],no binding
"CC(=O)O[C@H]1C[C@@]2(C)[C@H](C3=CC(=O)O[C@@H]3O)OC(=O)[C@H]3O[C@]32[C@@]2(C)[C@H]1[C@@]1(C)[C@@H](OC(C)=O)CC(=O)OC(C)(C)[C@@H]1C[C@H]2OC(C)=O [Compound 6, 1,2-dihydro-7-deoxo-1α,7α,11β-triacetoxykihadanin A]",KD,Hsp90α [1],no binding
